Results: US5744121A (priority 1996, dated 1998)
Where two headings read alike, the source gives them in different places. Blank lines part the entries; values can stand above or below the compound they belong to.

Experiments:
other receptors = details: cited from earlier work
5-HT1A receptor [1] = details: cited from earlier work
[2] = test system: 5-HT1A receptor (rat hippocampal membranes); details: cited from earlier work
5-HT1A receptor [3] = assay: Blocking studies: regional brain uptake ratios in rats; format: in vivo; details: 30 min post iv injection of tracer
Procedure: In order to further characterize the in vivo brain uptake of 1a in rats, blocking studies were carried out to determine changes of the ratios of regional brain uptake. […] Ratios for each region were calculated based on the % dose/gram of each region divided by the same in CB. […] (HP: hippocampus; CB: cerebellum; HY: hypothalamus; CX: cortex; ST: striatum).

[4] = Biodistribution in rats after iv injection; format: in vivo, Male Sprague-Dawley rats; details: average of 3 rats ± SD
Procedure: Male Sprague-Dawley rats (225-300 g), allowed free access to food and water, were used for an in vivo biodistribution study. While the rats were under ether anesthesia, 0.2 mL of a saline solution containing [^123 I]1a and 1b (8-10 μCi) was injected directly into the femoral vein, and rats were sacrificed at various time points postinjection by cardiac excision under ether anesthesia. The organs of interest were removed and weighed and the radioactivity was counted with a Packard […] automatic counter (Model 5000). The percentage dose per organ was calculated by a comparison of the tissue counts to suitably diluted aliquots of the injected material.

[5] = Regional brain distribution in rats after iv injection; format: in vivo, Male Sprague-Dawley rats; details: rat; for tissue uptake at 0.5 h: 30 min; for tissue uptake at 2 h: 120 min
5-HT1A receptor [6] = assay: as above; format: in vivo, Male Sprague-Dawley rats; details: ^123 I labeled, iv
[7] = target: T1, 5-HT1A receptor (rat hippocampal homogenates) (Rattus norvegicus, UniProt P19327); assay: Inhibition of [^125 I]-8-OH-PIPAT binding to rat hippocampal homogenates; details: ligand [^125 I]-8-OH-PIPAT
T1 construct: in rat hippocampal membrane preparations; from tissue; host or cells: rat hippocampus (membrane preparations / tissue homogenates)
T1 sequence (P19327 1-422): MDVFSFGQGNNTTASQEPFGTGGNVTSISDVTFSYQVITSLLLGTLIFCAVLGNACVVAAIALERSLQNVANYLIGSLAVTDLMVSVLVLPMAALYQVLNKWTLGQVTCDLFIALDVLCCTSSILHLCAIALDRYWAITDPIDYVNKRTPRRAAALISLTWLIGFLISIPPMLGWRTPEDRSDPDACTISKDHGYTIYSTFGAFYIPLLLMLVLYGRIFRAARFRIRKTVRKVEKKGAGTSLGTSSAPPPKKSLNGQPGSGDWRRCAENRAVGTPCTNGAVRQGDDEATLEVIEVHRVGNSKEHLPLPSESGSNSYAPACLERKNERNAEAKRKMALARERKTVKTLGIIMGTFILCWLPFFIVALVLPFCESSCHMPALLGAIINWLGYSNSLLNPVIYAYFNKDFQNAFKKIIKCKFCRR
From the text: The 5-HT1A binding affinity of p-, m-, o- MPPI, p-fluoro- and p-nitro-MPP derivatives (1a-f) in rat hippocampal membrane preparations with [^123 ]

[8] = target: T1, 5-HT1A receptor (rat hippocampal homogenates); assay: Inhibition of [^125 I]-p-MPP binding to rat hippocampal homogenates; details: ligand [^125 I]-p-MPP, rat hippocampal homogenates; read-out: Ki
[9] = test system: serotonin (5-HT1A) receptor; assay: Selectivity for serotonin 5-HT1A receptor; format: binding
[10] = Stability of the radiolabelled product on storage; format: physicochemical; details: -20° C., at least four weeks, HPLC; 40320 min
α1 receptor = details: relative to 5-HT1A; cited from earlier work
[11] = Partition coefficient (octanol/phosphate); format: physicochemical; details: octanol/0.1M phosphate, pH 7.0; read-out: P.C (partition coefficient) (converted)
From the text: P.C = 1800 (octanol/0.1M phosphate, pH 7.0)

[12] = target: T2, 5-HT1A receptor (rat hippocampus tissue homogenates) (Rattus norvegicus, UniProt P19327); assay: Saturation binding of [^125 I]p-MPPI to rat hippocampus tissue homogenates
T2 construct: in rat hippocampal membrane preparations; from tissue; host or cells: rat hippocampus (membrane preparations / tissue homogenates)
T2 sequence (P19327 1-422): T1 sequence (P19327 1-422)

[13] = hippocampus, 60 minutes after iv injection, ^123 I labeled, read-out: Uptake in hippocampal tissue
[14] = cerebellum, iv, rats (Table III), read-out: Regional distribution, cerebellum
[15] = cortex, iv, rats (Table III), read-out: Regional distribution, cortex
[16] = hippocampus, iv, rats (Table III), read-out: Regional distribution, hippocampus
[17] = hypothalamus, iv, rats (Table III), read-out: Regional distribution, hypothalamus
[18] = striatum, iv, rats (Table III), read-out: Regional distribution, striatum

SMILES: COc1ccccc1N1CCN(CCCCNC(=O)C23CC4CC(CC(C4)C2)C3)CC1 [4-[4-(1-adamantanecarboxamido)-butyl] 1-(2-methoxyphenyl)piperazine]
binding affinity to other receptors (other receptors): devoid of binding affinity to other receptors
Kd (5-HT1A receptor [1]; 5-HT1A receptor): 0.4 nM

SMILES: COc1ccccc1N1CCN(C[C@@H](C(=O)NC(C)(C)C)c2ccccc2)CC1 [(5)-WAY 100135, N-tert-butyl-3-(4-(-2-methoxyphenyl)piperazin-1-yl)-2-phenylpropionamide]
selectivity ([2]; 5-HT1A receptor): selective antagonist at both somatodendritic and postsynaptic receptor
IC50 ([2]; rat hippocampal membranes): 15 nM

SMILES: COc1ccccc1N1CCN(CCN(C(=O)c2ccc(I)cc2)c2ccccn2)CC1 [Compound 1a, 4-(2'-methoxy)phenyl-1-[2'-(N-2"-pyridinyl)-p-iodobenzamido]ethyl piperazine]
HP/CB ratio (5-HT1A receptor [3]; (±)8-OH-DPAT pretreated (2 mg/kg, iv, 5 min prior)): 1.21
HP/CB ratio (5-HT1A receptor [3]; WAY 100635 pretreated (1 mg/kg, iv, 20 min prior)): 1.07
HP/CB ratio (5-HT1A receptor [3]; control (no pretreatment)): 3.69
Brain uptake ([4]; 2 min): 1.22 % dose/organ
tissue uptake at 1 h [5, 13]: 0.13 %ID/g
5-HT1A related specific uptake (regional distribution pattern in rat brain) (5-HT1A receptor [6]): displayed the 5-HT1A related specific uptake
Ki [7]: 2.6 ± 0.7 nM
Ki [8]: 0.96 ± 0.1 nM
selectivity/affinity for serotonin 5-HT1A receptor [9]: unique high affinity and selectivity toward serotonin 5-HT1A sites

SMILES: COc1ccccc1N1CCN(CCN(C(=O)c2cccc(I)c2)c2ccccn2)CC1 [Compound 1b, 4-(2'-methoxy)phenyl-1-[2"-(N-2"-pyridinyl)-m-iodobenzamido]ethyl piperazine]
purity on storage [10]: > 95%
Brain uptake ([4]; 2 min): 0.76 % dose/organ
tissue uptake at 1 h [5, 13]: 0.013 %ID/g
Ki [7]: 1.7 ± 0.1 nM
Ki [8]: 2.46 ± 0.14 nM

SMILES: COc1ccccc1N1CCN(CCCCN2C(=O)c3ccccc3C2=O)CC1 [NAN-190, 1-(2-methoxyphenyl)-4-[4-(2-phthalimido)butyl]piperazine]
Ki (5-HT1A receptor [1]; 5-HT1A affinity): 0.6 nM
potency for the α1 receptor (α1 receptor): equal potency for the α1 receptor

purity on storage [10]: > 95%
Blood uptake ([4]; 2 min): 4.49 ± 0.55 % dose/organ
Brain uptake ([4]; 2 min): 1.22 ± 0.22 % dose/organ
Heart uptake ([4]; 2 min): 0.91 ± 0.09 % dose/organ
Kidney uptake ([4]; 2 min): 5.20 ± 0.44 % dose/organ
Liver uptake ([4]; 2 min): 14.2 ± 3.1 % dose/organ
Lung uptake ([4]; 2 min): 2.39 ± 0.10 % dose/organ
Muscle uptake ([4]; 2 min): 11.29 ± 4.15 % dose/organ
Skin uptake ([4]; 2 min): 8.34 ± 1.22 % dose/organ
Spleen uptake ([4]; 2 min): 0.37 ± 0.13 % dose/organ
Thyroid uptake ([4]; 2 min): 0.09 ± 0.02 % dose/organ
Blood uptake ([4]; 30 min): 4.04 ± 1.24 % dose/organ
Brain uptake ([4]; 30 min): 0.22 ± 0.01 % dose/organ
Heart uptake ([4]; 30 min): 0.18 ± 0.04 % dose/organ
Kidney uptake ([4]; 30 min): 1.74 ± 0.49 % dose/organ
Liver uptake ([4]; 30 min): 8.71 ± 0.20 % dose/organ
Lung uptake ([4]; 30 min): 0.48 ± 0.05 % dose/organ
Muscle uptake ([4]; 30 min): 7.58 ± 2.48 % dose/organ
Skin uptake ([4]; 30 min): 8.24 ± 1.60 % dose/organ
Spleen uptake ([4]; 30 min): 0.14 ± 0.02 % dose/organ
Thyroid uptake ([4]; 30 min): 0.03 ± 0.02 % dose/organ
Blood uptake ([4]; 60 min): 2.73 ± 0.09 % dose/organ
Brain uptake ([4]; 60 min): 0.12 ± 0.005 % dose/organ
Heart uptake ([4]; 60 min): 0.13 ± 0.02 % dose/organ
Kidney uptake ([4]; 60 min): 1.06 ± 0.23 % dose/organ
Liver uptake ([4]; 60 min): 7.53 ± 0.99 % dose/organ
Lung uptake ([4]; 60 min): 0.31 ± 0.04 % dose/organ
Muscle uptake ([4]; 60 min): 4.34 ± 0.91 % dose/organ
Skin uptake ([4]; 60 min): 4.51 ± 1.00 % dose/organ
Spleen uptake ([4]; 60 min): 0.11 ± 0.04 % dose/organ
Thyroid uptake ([4]; 60 min): 0.02 ± 0.007 % dose/organ
Blood uptake ([4]; 120 min): 2.05 ± 0.30 % dose/organ
Brain uptake ([4]; 120 min): 0.05 ± 0.002 % dose/organ
Heart uptake ([4]; 120 min): 0.07 ± 0.003 % dose/organ
Kidney uptake ([4]; 120 min): 0.62 ± 0.11 % dose/organ
Liver uptake ([4]; 120 min): 5.16 ± 1.01 % dose/organ
Lung uptake ([4]; 120 min): 0.18 ± 0.002 % dose/organ
Muscle uptake ([4]; 120 min): 2.14 ± 0.15 % dose/organ
Skin uptake ([4]; 120 min): 5.82 ± 4.37 % dose/organ
Spleen uptake ([4]; 120 min): 0.07 ± 0.009 % dose/organ
Thyroid uptake ([4]; 120 min): 0.02 ± 0.01 % dose/organ
logD [11]: 3.26
tissue uptake at 2 min [5, 14]: 0.64 ± 0.08 %ID/g
tissue uptake at 0.5 h [5, 14]: 0.07 ± 0.006 %ID/g
tissue uptake at 1 h ([5]; cerebellum, 60 min, iv, rats (Table III), read-out: Regional distribution, cerebellum): 0.04 ± 0.001 %ID/g
tissue uptake at 2 h [5, 14]: 0.024 ± 0.0002 %ID/g
tissue uptake at 2 min [5, 15]: 0.91 ± 0.06 %ID/g
tissue uptake at 0.5 h [5, 15]: 0.11 ± 0.01 %ID/g
tissue uptake at 1 h ([5]; cortex, 60 min, iv, rats (Table III), read-out: Regional distribution, cortex): 0.061 ± 0.002 %ID/g
tissue uptake at 2 h [5, 15]: 0.026 ± 0.002 %ID/g
tissue uptake at 2 min [5, 16]: 0.87 ± 0.18 %ID/g
tissue uptake at 0.5 h [5, 16]: 0.23 ± 0.007 %ID/g
tissue uptake at 1 h ([5]; hippocampus, 60 min, iv, rats (Table III), read-out: Regional distribution, hippocampus): 0.127 ± 0.009 %ID/g
tissue uptake at 2 h [5, 16]: 0.04 ± 0.003 %ID/g
tissue uptake at 2 min [5, 17]: 0.67 ± 0.1 %ID/g
tissue uptake at 0.5 h [5, 17]: 0.14 ± 0.04 %ID/g
tissue uptake at 1 h ([5]; hypothalamus, 60 min, iv, rats (Table III), read-out: Regional distribution, hypothalamus): 0.051 ± 0.004 %ID/g
tissue uptake at 2 h [5, 17]: 0.03 ± 0.0002 %ID/g
tissue uptake at 2 min [5, 18]: 0.76 ± 0.12 %ID/g
tissue uptake at 0.5 h [5, 18]: 0.09 ± 0.0001 %ID/g
tissue uptake at 1 h ([5]; striatum, 60 min, iv, rats (Table III), read-out: Regional distribution, striatum): 0.046 ± 0.004 %ID/g
tissue uptake at 2 h [5, 18]: 0.021 ± 0.0007 %ID/g
SMILES: COc1ccccc1N1CCN(CCN(C(=O)c2ccc([123I])cc2)c2ccccn2)CC1 [[^123 I] 1a]

SMILES: COc1ccccc1N1CCN(CCN(C(=O)c2ccc([125I])cc2)c2ccccn2)CC1 [[^125 I]-MPPI]
Bmax ([12]; 37° C., 15 min, 50 mM Tris-HCl pH 7.4, 2 mM MgCl2, 10 μM 5-HT for nonspecific binding): 264 fmol/mg of protein
Kd ([12]; 37° C., 15 min, 50 mM Tris-HCl pH 7.4, 2 mM MgCl2, 10 μM 5-HT for nonspecific binding, read-out: Kd (FIG. 1)): 0.36 nM
Kd ([12]; rat hippocampal homogenates, Kung, Unpublished data, read-out: Kd (Table I footnote)): 0.3 nM
